≈ marks a conversion by molar mass, not a printed value. Like-named read-outs stand apart in the source and are kept apart here.
Assays:
Kleb. pneumo. SK 1200 = experiment: in vitro MIC testing; type: cell-based; conditions: two values given
Description: (§1) The compounds of Formula I have exceptional antibacterial activity against both Gram-positive and Gram-negative organisms. Minimum inhibitory concentrations (MIC's) range from 0.1 to >200 μg./ml. in in vitro testing. Test results for the compound 7-D-mandelamido-3-[1-(2-ureidoethyl)tetrazol-5-ylthiomethyl]-3-cephem-4-carboxylic acid are given below: […]

Entero. cloacae HH 31254 = experiment: in vitro MIC testing; type: cell-based; conditions: Enterobacter cloacae, HH31254, two values given
Description: as §1

S. villaluz SK 70390 = experiment: in vitro MIC testing; type: cell-based; conditions: two values given
Description: as §1

S. aureus HH 127 = experiment: in vitro MIC testing; type: cell-based; conditions: two values given
Description: as §1

Pseudo. aerug. HH 63 = experiment: in vitro MIC testing; type: cell-based; conditions: two values given
Description: as §1

E. coli HH 33779 = experiment: in vitro MIC testing; type: cell-based; conditions: Escherichia coli, HH33779, two values given
Description: as §1

Shigella HH 117 = experiment: in vitro MIC testing; type: cell-based; conditions: two values given
Description: as §1

E. coli SK 12140 = experiment: in vitro MIC testing; type: cell-based; conditions: Escherichia coli, SK12140, two values given
Description: as §1

[1] = test system: Serratia Marc. ATCC 13880; experiment: in vitro MIC testing; type: cell-based; conditions: ATCC13880, two values given
Description: as §1

Strep. faecalis HH 34358 = experiment: in vitro MIC testing; type: cell-based; conditions: Enterococcus faecalis, HH34358, two values given
Description: as §1

Kleb. pneumo. SK 4200 = experiment: in vitro MIC testing; type: cell-based; conditions: two values given
Description: as §1

Proteus morgani 179 = experiment: in vitro MIC testing; type: cell-based; conditions: two values given
Description: as §1

S. aureus SK 23390 = experiment: in vitro MIC testing; type: cell-based; conditions: Staphylococcus aureus, SK23390, two values given
Description: as §1

Kleb. pneumo. 4200 = experiment: in vivo mouse protection test
Description: (§2) 4200 upon subcutaneous injection; and 17.5 mg./kg. against E. coli 12140 and 25.5 mg./kg. against Kleb. pneumo. 4200 upon oral administration.

E. coli 12140 = experiment: in vivo mouse protection test; conditions: Escherichia coli
Description: as §2

`NC(=O)NCCn1nnnc1SCC1=C(C(=O)O)N2C(=O)C(NC(=O)[C@H](O)c3ccccc3)[C@H]2SC1` (stereo partly drawn) [7-D-Mandelamido-3-[1-(2-ureidoethyl)tetrazol-5-ylthiomethyl]-3-cephem-4-carboxylic acid] was tested, and the MIC (Kleb. pneumo. SK 1200) was 0.4 µg/mL (≈ 0.748 µM), the MIC (Entero. cloacae HH 31254) was 0.8 µg/mL (≈ 1.5 µM) and the MIC (S. villaluz SK 70390) was 25 µg/mL (≈ 46.8 µM). The MIC (S. aureus HH 127; S. aureus HH 127) was 1.6 µg/mL (≈ 2.99 µM), the MIC (S. aureus HH 127; Staphylococcus aureus, HH127, S. aureus HH 127, read-out: MIC) was 3.1 µg/mL (≈ 5.8 µM) and the MIC (Pseudo. aerug. HH 63) was > 200 µg/mL. It also gave an MIC (E. coli HH 33779) of 1.6 µg/mL (≈ 2.99 µM), an MIC (Shigella HH 117; Shigella HH 117) of 0.2 µg/mL (≈ 0.374 µM) and an MIC (Shigella HH 117; Shigella, HH117, Shigella HH 117, read-out: MIC) of 0.1 µg/mL (≈ 0.187 µM). It also gave an MIC (E. coli SK 12140) of 0.8 µg/mL (≈ 1.5 µM), an MIC [1] of 25 µg/mL (≈ 46.8 µM) and an MIC (Strep. faecalis HH 34358) of 25 µg/mL (≈ 46.8 µM). The MIC (Kleb. pneumo. SK 4200) was 0.8 µg/mL (≈ 1.5 µM), the MIC (Proteus morgani 179) was 0.8 µg/mL (≈ 1.5 µM) and the MIC (S. aureus SK 23390) was 0.4 µg/mL (≈ 0.748 µM). The ED50 (Kleb. pneumo. 4200; Kleb. pneumo. 4200, oral administration) was 25.5 mg/kg, the ED50 (Kleb. pneumo. 4200; sc, Kleb. pneumo. 4200, subcutaneous injection) was 1.34 mg/kg and the ED50 (E. coli 12140; E. coli 12140, oral administration) was 17.5 mg/kg. For the same compound, the ED50 (E. coli 12140; sc, E. coli 12140, subcutaneous injection) was 0.86 mg/kg.
